Laboratory results taken from patent US12473283B2, “Compounds and their use” (Debiopharm International S.A., priority 2019, dated 2025).
Values after ≈ are worked out from the molar mass of the structure shown. Where two headings read alike, the source gives them in different places.

Columns and labels:
[1] = target: FabI enzyme from Acinetobacter baumannii (Acinetobacter baumannii, UniProt D0CAD5); assay: Inhibition of FabI enzyme, rate of NADH consumption; format: biochemical
Method: Inhibition of FabI enzyme from Acinetobacter baumannii and Escherichia coli was tested by measuring the rate of NADH consumption (Δabsorbance at 340 nm/min) at 30° C. in 96-well plate format using an automated plate reader in the presence or absence of the test compounds. The assay mixture contained 100 mM Tris-HCl, pH 7.25 (A. baumannii) or 7.5 (E. coli), 100 mM ammonium acetate, 0.02% (A. baumannii) or 0.05% (E. coli) Pluronic F-68, 25 μM crotonyl ACP, 50 μM NADH, 25 pM (A. baumannii) or 50 pM (E. coli) recombinant FabI protein, and 7.5% DMSO. Test compounds were added at concentrations ranging from 0.17 to 10,000 nM in a final well volume of 100 μl. This dose-response inhibitory assay was performed using a 10-point, serial dilution series for each test compound. IC50 values for each test compound were assigned from logistical sigmoid curve-fitting of the inhibition dose response curves.

[2] = system: A. baumannii ATCC BAA1605; assay: Broth microdilution MIC assay; format: cell-based; settings: Acinetobacter baumannii, ATCCBAA1605; CA-MHB, 35° C., 20 hours
Method: (§1) The antibacterial activity of FabI inhibitors against select Gram-negative and Gram-positive bacterial species including susceptible and multi-drug resistant A. baumannii, E. coli, K. pneumoniae and S. aureus was tested using the broth microdilution Minimal Inhibitory Concentration (MIC) assay following CLSI guidelines for insoluble compounds. Test articles were serially diluted 2-fold in 100% dimethyl sulfoxide (DMSO) and then diluted 100-fold into cation adjusted Mueller-Hinton broth (CA-MHB) to achieve a 10-point test concentration range in 1% DMSO. Final compound concentrations were 0.016-8 μg/ml for S. aureus or 0.06-32 μg/ml for the Gram-negative species. MIC test plates were then prepared by transferring 100 μl of the final assay medium (test article in CA-MHB, 1% DMSO) into the appropriate wells of a sterile, low binding 96-well polystyrene plate. Direct colony suspension inoculums of the test strains were freshly prepared per CLSI guidelines, and the appropriate test wells were inoculated to achieve a final bacterial cell density of 5×10^5 CFU/ml. Growth control (no test article) and negative control (no bacterial inoculum) wells were also included. Exposure to light was minimized during all stages of assay preparation. […] Bacterial growth was then determined by measuring the optical density at 600 nm (OD600) using a SpectraMax Plus plate-reader spectrophotometer.

S. aureus ATCC 29213 = assay: Broth microdilution MIC assay; format: cell-based; settings: Staphylococcus aureus, ATCC29213; CA-MHB, 35° C., 20 hours
Method: as §1

E. coli AG100 = assay: Broth microdilution MIC assay; format: cell-based; settings: Escherichia coli, CA-MHB, 35° C., 20 hours
Method: as §1

K. pneumoniae A6030827 = assay: Broth microdilution MIC assay; format: cell-based; settings: Klebsiella pneumoniae, CA-MHB, 35° C., 20 hours
Method: as §1

[3] = system: Acinetobacter baumannii ATCC 17978; assay: Mouse thigh infection model; format: in vivo, BALB/c mice; settings: 3 mg/kg q12h SC
Method: (§2) Groups of 5 female specific-pathogen-free BALB/c mice weighing 18±2 g were used. In the 24 hr model (bacterial counts determined 24 hr after treatment start), mice were rendered neutropenic with cyclophosphamide intraperitoneal (IP) administration conducted at Days −4 (150 mg/kg), and day −1 (100 mg/kg). In the 72 hr model (bacterial counts determined 72 hr after treatment start), animals were rendered persistently neutropenic for the duration of the infection period with cyclophosphamide intraperitoneal (IP) administration conducted at Days −4 (150 mg/kg), −1 (100 mg/kg) and +1 (100 mg/kg). Persistent neutropenia is required to prevent pathogen clearance from thigh tissue in the 74 hr model. Nutritional supplementation (diet gel) plus saline SC injections were provided daily to help animals tolerate the cyclophosphamide treatment.
On day 0, animals were inoculated intramuscularly (0.1 ml/thigh) with a 1.67×10^4 inoculum count of Acinetobacter baumannii ATCC 17978. Vehicle control (40% Captisol), positive control (tigecycline) or test substances were then administered 2 hr post infection by the subcutaneous (SC) route of administration. Each dosing group consisted of 5 female mice. The MICs of the compounds against the test strain were 8 μg/ml, 2 μg/ml and […] for compound 201, compound 71 and compound 200, respectively. At 26 or 74 hours after inoculation (24 or 72 hr after treatment initiation), animals were euthanized with CO2 asphyxiation and the thigh tissue harvested from each of the test animals. The tissues were homogenized in 3 mL of PBS, pH 7.4 with a homogenizer. Homogenates, 0.1 mL, were used for serial 10-fold dilutions and plated onto NB agar for colony counts. Efficacy is calculated as the change in log CFU/g thigh vs. the time 0 (treatment initiation) control.

A. baumannil ATCC 17978 = assay: Mouse lung infection model; format: in vivo, BALB/c mice; settings: 3 mg/kg q12h SC
Method: as §2, with “lung” for “thigh”
On day 0, animals were anesthetized with etomidate-lipuro emulsion (20 mg/10 mL; 20 mg/kg dose, IV) and then inoculated intranasally with an A. baumannil ATCC 17978 suspension, 1.36×10^5 CFU/mouse, 0.02 mL/mouse. Vehicle control (40% Captisol), positive control (tigecycline) or test substances were then administered 2 hr post infection by the subcutaneous (SC) route of administration. Each dosing group consisted of 5 female mice. The MICs of the compounds against the test strain were 8 μg/ml and 0.5 μg/ml for compound 201 and compound 200, respectively. At 26 or 74 hours after inoculation (24 or 72 hr after treatment initiation), animals were euthanized with CO2 asphyxiation and the lung tissue harvested from each of the test animals. The tissues were homogenized in 1 ml of PBS, pH 7.4 with a homogenizer. Homogenates, 0.1 mL, were used for serial 10-fold dilutions and plated onto MacConkey II agar for colony counts. Efficacy is calculated as the change in log CFU/g […] vs. the time 0 (treatment initiation) control.

[4] = recombinant FabI, 30° C., pH 7.25, read-out: A. baumannii Fabl IC50
[5] = total daily dose 6 mg/kg, 24 hr treatment
[6] = total daily dose 6 mg/kg, 72 hr treatment

Sequence of FabI enzyme from Acinetobacter baumannii (D0CAD5 entry or part of it): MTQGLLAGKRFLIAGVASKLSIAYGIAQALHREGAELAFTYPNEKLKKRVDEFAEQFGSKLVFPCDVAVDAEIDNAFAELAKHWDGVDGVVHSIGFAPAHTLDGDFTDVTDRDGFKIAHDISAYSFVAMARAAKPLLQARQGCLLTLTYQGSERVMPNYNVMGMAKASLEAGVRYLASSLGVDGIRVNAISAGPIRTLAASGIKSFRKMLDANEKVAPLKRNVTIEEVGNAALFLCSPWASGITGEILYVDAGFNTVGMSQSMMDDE

Structure (SMILES)	IC50 [1]	MIC [2]	MIC (S. aureus ATCC 29213)	MIC (E. coli AG100)	MIC (K. pneumoniae A6030827)	further results
Cc1c(CN(C)C(=O)/C=C/c2cnc3c(c2)CC[C@H](N)C(=O)N3)oc2ccc(Oc3cccnc3)cc12.Cl (single isomer, unassigned) [Compound 151, hydrochloride]	< 10 nM	–	–	–	–	–
CC(=O)NC1CNc2cc(/C=C/C(=O)N(C)Cc3oc4ccccc4c3C)cnc2NC1=O (stereo not shown) [Compound 42, (E)-3-(3-acetamido-4-oxo-2,3,4,5-tetrahydro-1H-pyrido[2,3-b][1,4]diazepin-8-yl)-N-methyl-N-((3-methylbenzofuran-2-yl)methyl)acrylamide]	–	≤ 4 µg/mL	≤ 4 µg/mL	–	–	–
Cc1c(CN(C)C(=O)/C=C/c2cnc3c(c2)CC[C@H](N)C(=O)N3)oc2c(F)cccc12.Cl (single isomer, unassigned) [Compound 107]	–	≤ 4 µg/mL	≤ 4 µg/mL	≤ 4 µg/mL	≤ 4 µg/mL	–
Cc1c(CN(C)C(=O)/C=C/c2cnc3c(c2)N[C@H](C)[C@H](N)C(=O)N3)oc2ccccc12 [Compound 52, (E)-3-((2R,3S)-3-amino-2-methyl-4-oxo-2,3,4,5-tetrahydro-1H-pyrido[2,3-b][1,4]diazepin-8-yl)-N-methyl-N-((3-methylbenzofuran-2-yl)methyl)acrylamide]	–	≤ 4 µg/mL	≤ 4 µg/mL	≤ 4 µg/mL	–	IC50 [1, 4]: < 10 nM
Cc1c(CN(C)C(=O)/C=C/c2cnc3c(c2)CCC(N2CCN(S(C)(=O)=O)CC2)C(=O)N3)oc2ccccc12 (stereo not shown) [Compound 187, (E)-N-methyl-N-((3-methylbenzofuran-2-yl)methyl)-3-(7-(4-(methylsulfonyl)piperazin-1-yl)-8-oxo-6,7,8,9-tetrahydro-5H-pyrido[2,3-b]azepin-3-yl)acrylamide]	–	≤ 4 µg/mL	≤ 4 µg/mL	16 µg/mL (≈ 29 µM)	–	IC50 [1, 4]: < 10 nM
Cc1c(CN(C)C(=O)/C=C/c2cnc3c(c2)CC[C@H](N)C(=O)N3)sc2c(F)cccc12.Cl (single isomer, unassigned) [Compound 140, hydrochloride]	< 10 nM	–	–	–	–	–
Cc1c(CN(C)C(=O)/C=C/c2cnc3c(c2)CC[C@H](N)C(=O)N3)oc2cccc(CNc3cccnc3)c12.Cl.Cl (single isomer, unassigned) [Compound 167, dihydrochloride]	< 10 nM	–	–	–	–	–
Cc1c(CN(C)C(=O)/C=C/c2cnc3c(c2)CC[C@H](N)C(=O)N3)oc2cccc(CNc3cccnc3)c12.Cl.Cl (single isomer, unassigned) [Compound 167]	–	≤ 4 µg/mL	≤ 4 µg/mL	≤ 4 µg/mL	≤ 4 µg/mL	–
CN(C)c1cc(NC(=O)CNC(C)(C)C)c(O)c2c1C[C@H]1C[C@H]3[C@H](N(C)C)C(O)=C(C(N)=O)C(=O)[C@@]3(O)C(O)=C1C2=O [Tigecycline, reference compound]	–	–	–	–	–	Mean Change log CFU/g thigh 24 hr ([3]; 24 hr, vs. time 0 control): −2.48 log CFU/g thigh; Mean Change log CFU/g thigh 72 hr ([3]; 72 hr, vs. time 0 control): −3.48 log CFU/g thigh; Mean Log CFU/g thigh 24 hr [3, 5]: 2.37 log CFU/g thigh; Mean Log CFU/g thigh 72 hr [3, 6]: 1.36 log CFU/g thigh; Mean change log CFU/g lung 24 hr (A. baumannil ATCC 17978; 24 hr, vs. time 0 control): −3.44 log CFU/g lung; Mean change log CFU/g lung 72 hr (A. baumannil ATCC 17978; 72 hr, vs. time 0 control): −4.74 log CFU/g lung; Mean Log CFU/g lung 24 hr (A. baumannil ATCC 17978; [5]): 2.87 log CFU/g lung; Mean Log CFU/g lung 72 hr (A. baumannil ATCC 17978; [6]): 1.57 log CFU/g lung
Cc1c(CN(C)C(=O)/C=C/c2cnc3c(c2)CC[C@H](N)C(=O)N3)oc2c(F)cccc12.Cl (single isomer, unassigned) [Compound 107, hydrochloride]	< 10 nM	–	–	–	–	–
Cc1c(CN(C)C(=O)/C=C/c2cnc3c(c2)CC[C@H](N)C(=O)N3)oc2cccc(F)c12.Cl (single isomer, unassigned) [Compound 130, hydrochloride]	< 10 nM	–	–	–	–	–
Cc1c(CN(C)C(=O)/C=C/c2cnc3c(c2)CC[C@H](N)C(=O)N3)oc2c(Cl)cccc12.Cl (single isomer, unassigned) [Compound 98]	–	≤ 4 µg/mL	≤ 4 µg/mL	≤ 4 µg/mL	≤ 4 µg/mL	–
Cc1c(CN(C)C(=O)/C=C/c2cnc3c(c2)CC[C@H](N)C(=O)N3)oc2ccc(Oc3cccnc3)cc12.Cl (single isomer, unassigned) [Compound 151]	–	–	≤ 4 µg/mL	≤ 4 µg/mL	≤ 4 µg/mL	–
Cc1c(CN(C)C(=O)/C=C/c2cnc3c(c2)CC[C@H](N)C(=O)N3)sc2c(F)cccc12.Cl (single isomer, unassigned) [Compound 140]	–	≤ 4 µg/mL	≤ 4 µg/mL	≤ 4 µg/mL	≤ 4 µg/mL	–
Cc1c(CN(C)C(=O)/C=C/c2cnc3c(c2)CC[C@H](N)C(=O)N3)oc2c(Cl)cccc12.Cl (single isomer, unassigned) [Compound 98, hydrochloride]	< 10 nM	–	–	–	–	–
Cc1c(CN(C)C(=O)/C=C/c2cnc3c(c2)CC[C@H](N)C(=O)N3)oc2cccc(F)c12.Cl (single isomer, unassigned) [Compound 130]	–	≤ 4 µg/mL	≤ 4 µg/mL	≤ 4 µg/mL	≤ 4 µg/mL	–
Cc1oc2c(N)cccc2c1CN(C)C(=O)/C=C/c1cnc2c(c1)N[C@H](C)[C@H](N)C(=O)N2 [Compound 62, (E)-3-((2R,3S)-3-amino-2-methyl-4-oxo-2,3,4,5-tetrahydro-1H-pyrido[2,3-b][1,4]diazepin-8-yl)-N-((7-amino-2-methylbenzofuran-3-yl)methyl)-N-methylacrylamide]	–	≤ 4 µg/mL	≤ 4 µg/mL	≤ 4 µg/mL	–	IC50 [1, 4]: < 10 nM
Cc1c(CN(C)C(=O)/C=C/c2cnc3c(c2)CC[C@H](N)C(=O)N3)sc2ccccc12.Cl (single isomer, unassigned) [Compound 119]	–	≤ 4 µg/mL	≤ 4 µg/mL	≤ 4 µg/mL	≤ 4 µg/mL	–
